According to patent US11098052B2, “4-azapodophylotoxins compounds” (Arizona Board of Regents on behalf of Arizona State …, priority 2016, dated 2021):
In brackets after ≈: the same amount, converted by molar mass. Read-outs that look alike come from different tables or passages of the source.

Experiments:
[1] = system: P388 murine lymphocytic leukemia cell line; assay: Murine P388 lymphocytic leukemia inhibitory activity; format: cell-based; conditions: Mus musculus
BXPC-3 (pancreas) = assay: Human cancer cell growth inhibition, sulforhodamine B assay, BXPC-3; format: cell-based; conditions: read-out: Growth Inhibition of Human Cancer Cell Lines (GI50), BXPC-3
Procedure: (§1) Cancer Cell Line Procedures. The human cancer cell growth inhibition data were determined using the standard sulforhodamine B assay of the US National Cancer Institute as previously described.^35 In short, cells in a 5% fetal bovine serum/RPMI1640 medium were inoculated in 96-well plates and incubated for 24 h. Next, serial dilutions of the samples were added. After 48 h, the plates were fixed with trichloroacetic acid, stained with sulforhodamine B, and read with an automated microplate reader. A growth inhibition of 50% (GI50 or the drug concentration causing a 50% reduction in the net protein increase) was determined from optical density data employing Immunosoft® software.

MCF-7 (breast) = assay: Human cancer cell growth inhibition, sulforhodamine B assay, MCF-7; format: cell-based; conditions: read-out: Growth Inhibition of Human Cancer Cell Lines (GI50), MCF-7
Procedure: as §1

SF-268 (CNS) = assay: Human cancer cell growth inhibition, sulforhodamine B assay, SF-268; format: cell-based; conditions: read-out: Growth Inhibition of Human Cancer Cell Lines (GI50), SF-268
Procedure: as §1

NCI-H460 (lung) = assay: Human cancer cell growth inhibition, sulforhodamine B assay, NCI-H460; format: cell-based; conditions: read-out: Growth Inhibition of Human Cancer Cell Lines (GI50), NCI-H460
Procedure: as §1

KM20L2 (colon) = assay: Human cancer cell growth inhibition, sulforhodamine B assay, KM20L2; format: cell-based; conditions: read-out: Growth Inhibition of Human Cancer Cell Lines (GI50), KM20L2
Procedure: as §1

DU-145 (prostate) = assay: Human cancer cell growth inhibition, sulforhodamine B assay, DU-145; format: cell-based; conditions: read-out: Growth Inhibition of Human Cancer Cell Lines (GI50), DU-145
Procedure: as §1

[2] = P388 cell line, read-out: Murine P388 Lymphocytic Leukemia Inhibitory Activity (ED50)
[3] = BXPC-3 pancreas, 48 h, sulforhodamine B
[4] = MCF7, MCF-7 breast, 48 h, sulforhodamine B
[5] = SF-268 CNS, 48 h, sulforhodamine B
[6] = NCI-H460 lung, 48 h, sulforhodamine B
[7] = KM-20L2, KM20L2 colon, 48 h, sulforhodamine B
[8] = DU-145 prostate, 48 h, sulforhodamine B
[9] = P388, read-out: Murine P388 Lymphocytic Leukemia Inhibitory Activity (ED50)

SMILES | melting point | IC50 [1, 2] [µg/mL] | GI50 (BXPC-3 (pancreas); [3]) [µg/mL] | GI50 (MCF-7 (breast); [4]) [µg/mL] | GI50 (SF-268 (CNS); [5]) [µg/mL] | GI50 (NCI-H460 (lung); [6]) [µg/mL] | GI50 (KM20L2 (colon); [7]) [µg/mL] | GI50 (DU-145 (prostate); [8]) [µg/mL] | IC50 [1, 9] [µg/mL] | GI50 (BXPC-3 (pancreas); BXPC-3, 48 h) [µg/mL] | GI50 (MCF-7 (breast); MCF7, 48 h) [µg/mL] | GI50 (SF-268 (CNS); SF-268, 48 h) [µg/mL] | GI50 (NCI-H460 (lung); NCI-H460, 48 h) [µg/mL] | GI50 (KM20L2 (colon); KM-20L2, 48 h) [µg/mL] | GI50 (DU-145 (prostate); DU-145, 48 h) [µg/mL]
COc1ccc(C2C3=C(COC3=O)Nc3cc(OC)c(OC)c(OC)c32)cc1O[Si](C)(C)C(C)(C)C (stereo not drawn) | 169 to 171 °C |  |  |  |  |  |  |  |  |  |  |  |  |  | 
COc1cc(C2C3=C(COC3=O)N(CCO)c3cc4c(cc32)OCO4)cc(OC)c1OC (stereo not drawn) [Compound 13, 6,7-Methylenedioxy-4-(2-hydroxy-ethyl)-9-(3,4,5-trimethoxyphenyl)-4,9-dihydro-3H-furo[3,4-b]quinolin-1-one] |  | 2 (≈ 4.53 µM) | 0.6 (≈ 1.36 µM) | 0.37 (≈ 0.838 µM) | 0.41 (≈ 0.929 µM) | 0.58 (≈ 1.31 µM) | 0.52 (≈ 1.18 µM) | 1.3 (≈ 2.94 µM) |  |  |  |  |  |  | 
COc1cc(C2C3=C(COC3=O)N(CCCO)c3cc4c(cc32)OCO4)cc(OC)c1OC (stereo not drawn) [Compound 14, 6,7-Methylenedioxy-4-(3-hydroxy-propyl)-9-(3,4,5-trimethoxyphenyl)-4,9-dihydro-3H-furo[3,4-b]quinolin-1-one] | 269 to 272 °C (dec.) |  |  |  |  |  |  |  | 0.28 (≈ 0.615 µM) | 0.48 (≈ 1.05 µM) | 0.34 (≈ 0.746 µM) | 0.36 (≈ 0.79 µM) | 0.33 (≈ 0.725 µM) | 0.38 (≈ 0.834 µM) | 0.49 (≈ 1.08 µM)
COc1cc(C2C3=C(COC3=O)Nc3cc(OC)c(OC)c(OC)c32)cc(OC)c1OC (stereo not drawn) [Compound 15, 6,7,8-Trimethoxy-9-(3,4,5-trimethoxyphenyl)-4,9-dihydro-3H-furo[3,4-b]quinolin-1-one] | 137 to 139 °C |  |  |  |  |  |  |  | 1.3 (≈ 2.93 µM) | 5.6 (≈ 12.6 µM) | 1.7 (≈ 3.83 µM) | 3.6 (≈ 8.12 µM) | 3.6 (≈ 8.12 µM) |  | 3.3 (≈ 7.44 µM)
COc1cc(C2C3=C(COC3=O)Nc3cc(OC)c(OC)c(OC)c32)cc(Br)c1OC (stereo not drawn) [Compound 15a, 6,7,8-Trimethoxy-9-(3-bromo-4,5-trimethoxyphenyl)-4,9-dihydro-3H-furo[3,4-b]quinolin-1-one] | 175 to 177 °C |  |  |  |  |  |  |  | 0.11 (≈ 0.223 µM) | 0.56 (≈ 1.14 µM) | 0.12 (≈ 0.244 µM) | 0.11 (≈ 0.223 µM) | 0.35 (≈ 0.711 µM) |  | 0.42 (≈ 0.853 µM)
COc1ccc(C2C3=C(COC3=O)Nc3cc(OC)c(OC)c(OC)c32)cc1O (stereo not drawn) [Compound 15c, 6,7,8-Trimethoxy-9-(3-hydroxy-4-methoxyphenyl)-4,9-dihydro-3H-furo[3,4-b]quinolin-1-one] |  |  |  |  |  |  |  |  | 0.78 (≈ 1.95 µM) | 6.5 (≈ 16.3 µM) | 7 (≈ 17.5 µM) | 7.3 (≈ 18.3 µM) | 10.1 (≈ 25.3 µM) |  | > 10
O=C1OCC2=C1C(c1cccc3c1OCO3)c1cc3c(cc1N2)OCO3 (stereo not drawn) [Compound 15d, 6,7-Methylenedioxy-9-(2,3-methylenedioxyphenyl)-4,9-dihydro-3H-furo[3,4-b]quinolin-1-one] | 324 to 327 °C |  |  |  |  |  |  |  | 0.17 (≈ 0.484 µM) | 0.065 (≈ 0.185 µM) | 0.0039 (≈ 0.0111 µM) | 0.0089 (≈ 0.0253 µM) | 0.021 (≈ 0.0598 µM) |  | 0.041 (≈ 0.117 µM)
COc1cc(C2C3=C(COC3=O)N(C)c3cc4c(cc32)OCO4)cc(OC)c1OC (stereo not drawn) [Compound 16, 6,7-Methylenedioxy-4-methyl-9-(3,4,5-trimethoxyphenyl)-4,9-dihydro-3H-furo[3,4-b]quinolin-1-one] |  |  |  |  |  |  |  |  | 0.027 (≈ 0.0656 µM) | 0.049 (≈ 0.119 µM) | 0.034 (≈ 0.0826 µM) | 0.029 (≈ 0.0705 µM) | 0.032 (≈ 0.0778 µM) | 0.032 (≈ 0.0778 µM) | 0.026 (≈ 0.0632 µM)
COc1cc(C2C3=C(COC3=O)N(C3CCC3)c3cc4c(cc32)OCO4)cc(OC)c1OC (stereo not drawn) [Compound 17, 6,7-Methylenedioxy-4-(cyclobutyl)-9-(3,4,5-trimethoxyphenyl)-4,9-dihydro-3H-furo[3,4-b]quinolin-1-one] | 224 to 226 °C |  |  |  |  |  |  |  | 0.24 (≈ 0.532 µM) | 0.04 (≈ 0.0886 µM) | 0.026 (≈ 0.0576 µM) | 0.026 (≈ 0.0576 µM) | 0.028 (≈ 0.062 µM) | 0.032 (≈ 0.0709 µM) | 0.047 (≈ 0.104 µM)
COc1cc(C2C3=C(COC3=O)N(C3CCCC3)c3cc4c(cc32)OCO4)cc(OC)c1OC (stereo not drawn) [Compound 18, 6,7-Methylenedioxy-4-(cyclopentyl)-9-(3,4,5-trimethoxyphenyl)-4,9-dihydro-3H-furo[3,4-b]quinolin-1-one] | 221 to 223 °C |  |  |  |  |  |  |  | 15.3 (≈ 32.9 µM) | 0.083 (≈ 0.178 µM) | 0.045 (≈ 0.0967 µM) | 0.062 (≈ 0.133 µM) | 0.16 (≈ 0.344 µM) | 0.12 (≈ 0.258 µM) | 0.27 (≈ 0.58 µM)
COc1cc(C2C3=C(COC3=O)N(C3CCCCC3)c3cc4c(cc32)OCO4)cc(OC)c1OC (stereo not drawn) [Compound 19, 6,7-Methylenedioxy-4-(cyclohexyl)-9-(3,4,5-trimethoxyphenyl)-4,9-dihydro-3H-furo[3,4-b]quinolin-1-one] | 235 to 237 °C |  |  |  |  |  |  |  | 3.4 (≈ 7.09 µM) | 0.17 (≈ 0.355 µM) | 0.052 (≈ 0.108 µM) | 0.066 (≈ 0.138 µM) | 0.27 (≈ 0.563 µM) | 0.24 (≈ 0.5 µM) | 0.27 (≈ 0.563 µM)
COc1cc(C2C3=C(COC3=O)N(CCN3CCCCC3)c3cc4c(cc32)OCO4)cc(OC)c1OC (stereo not drawn) [Compound 21, 6,7-Methylenedioxy-4-(2-piperidin-1-yl-ethyl)-9-(3,4,5-trimethoxyphenyl)-4,9-dihydro-3H-furo[3,4-b]quinolin-1-one] | 170 °C (dec.) | 1.7 (≈ 3.34 µM) | 4.4 (≈ 8.65 µM) | > 10 | > 10 | > 10 | > 10 | > 10 |  |  |  |  |  |  | 
COc1cc(C2C3=C(COC3=O)N(CCN3CCOCC3)c3cc4c(cc32)OCO4)cc(OC)c1OC (stereo not drawn) [Compound 22, 6,7-Methylenedioxy-4-(2-morpholin-4-yl-ethyl)-9-(3,4,5-trimethoxyphenyl)-4,9-dihydro-3H-furo[3,4-b]quinolin-1-one] | 186 to 189 °C |  |  |  |  |  |  |  | 2.6 (≈ 5.09 µM) | 3.5 (≈ 6.86 µM) | 0.89 (≈ 1.74 µM) | 2.6 (≈ 5.09 µM) | 3 (≈ 5.88 µM) | 2.5 (≈ 4.9 µM) | 2 (≈ 3.92 µM)
COc1cc(C2C3=C(COC3=O)N(Cc3ccc(F)cc3)c3cc4c(cc32)OCO4)cc(OC)c1OC (stereo not drawn) [Compound 23, 6,7-Methylenedioxy-4-(4-fluoro-benzyl)-9-(3,4,5-trimethoxyphenyl)-4,9-dihydro-3H-furo[3,4-b]quinolin-1-one] | 246 to 247 °C |  |  |  |  |  |  |  | 1.9 (≈ 3.76 µM) | 0.046 (≈ 0.091 µM) | 0.037 (≈ 0.0732 µM) | 0.03 (≈ 0.0593 µM) | 0.031 (≈ 0.0613 µM) | 0.033 (≈ 0.0653 µM) | 0.047 (≈ 0.093 µM)
COc1cc(C2C3=C(COC3=O)N(CCc3ccccn3)c3cc4c(cc32)OCO4)cc(OC)c1OC (stereo not drawn) [Compound 24, 6,7-Methylenedioxy-4-(2-pyridin-2-yl-ethyl)-9-(3,4,5-trimethoxyphenyl)-4,9-dihydro-3H-furo[3,4-b]quinolin-1-one] | 239 to 241 °C |  |  |  |  |  |  |  | 2.5 (≈ 4.97 µM) | 0.38 (≈ 0.756 µM) | 0.32 (≈ 0.637 µM) | 0.33 (≈ 0.657 µM) | 0.34 (≈ 0.677 µM) | 0.29 (≈ 0.577 µM) | 0.42 (≈ 0.836 µM)
COc1cc(C2C3=C(COC3=O)Nc3cc4c(cc32)OCO4)cc(OC)c1O (stereo not drawn) [Compound 29, 6,7-Methylenedioxy-9-(4-hydroxy-3,5-dimethoxy-phenyl)-4,9-dihydro-3H-furo[3,4-b]quinolin-1-one] |  |  |  |  |  |  |  |  | 0.028 (≈ 0.073 µM) | 0.028 (≈ 0.073 µM) | 0.025 (≈ 0.0652 µM) | 0.026 (≈ 0.0678 µM) | 0.027 (≈ 0.0704 µM) | 0.032 (≈ 0.0835 µM) | 0.033 (≈ 0.0861 µM)
COc1cc(C2C3=C(COC3=O)N(C3CCCC3)c3cc4c(cc32)OCO4)cc(OC)c1O (stereo not drawn) [Compound 30, 6,7-Methylenedioxy-4-(cyclopentyl)-9-(4-hydroxy-3,5-dimethoxy-phenyl)-4,9-dihydro-3H-furo[3,4-b]quinolin-1-one] |  |  |  |  |  |  |  |  | 30.3 (≈ 67.1 µM) | 0.53 (≈ 1.17 µM) | 0.32 (≈ 0.709 µM) | 0.39 (≈ 0.864 µM) | 0.33 (≈ 0.731 µM) | 2.1 (≈ 4.65 µM) | 0.41 (≈ 0.908 µM)
COc1cc(C2C3=C(COC3=O)N(CCc3ccc(F)cc3)c3cc4c(cc32)OCO4)cc(OC)c1O (stereo not drawn) [Compound 31, 6,7-Methylenedioxy-4-[2-(4-fluorophenyl)-ethyl]-9-(4-hydroxy-3,5-dimethoxy-phenyl)-4,9-dihydro-3H-furo[3,4-b]quinolin-1-one] |  |  |  |  |  |  |  |  | 0.21 (≈ 0.415 µM) | 1.4 (≈ 2.77 µM) | 0.34 (≈ 0.673 µM) | 0.48 (≈ 0.95 µM) | 0.36 (≈ 0.712 µM) |  | 0.38 (≈ 0.752 µM)
COc1cc(C2C3=C(COC3=O)N(Cc3ccco3)c3cc4c(cc32)OCO4)cc(OC)c1O (stereo not drawn) [Compound 32, 6,7-Methylenedioxy-4-(furan-2-ylmethyl)-9-(4-hydroxy-3,5-dimethoxy-phenyl)-4,9-dihydro-3H-furo[3,4-b]quinolin-1-one] |  |  |  |  |  |  |  |  | 0.89 (≈ 1.92 µM) | 1 (≈ 2.16 µM) | 0.054 (≈ 0.117 µM) | 0.061 (≈ 0.132 µM) | 0.24 (≈ 0.518 µM) |  | 0.39 (≈ 0.842 µM)
